Source: US11179414B2, “Method for producing protease degradation composition” (LAIMU CORPORATION, priority 2018, dated 2021)

Test system: adult-derived normal human fibroblasts
Assay: Collagen production promoting test (human collagen type 1 ELISA of supernatant)
Format: cell-based
Settings: final concentration 1 mg/mL; culture for 3 days; mean of 5 tests
Description: As the cells for test, adult-derived normal human fibroblasts bought from Kurabo Industries Ltd. were used.
As a cell growth medium, DMEM added with 10% FBS and […] mixed solution was used; and as a test medium, DMEM added with 1% FBS and 1% penicillin-streptomycin mixed solution was used.
Adult-derived normal human fibroblasts were sown and initiated in a cell growth medium inside a cell culture flask (Corning's T-75), and cultured in a moist environment at 37° C. in the presence of 5% CO2. During this, the medium was replaced every other day, and at the time when the culture reached 80% confluent growth, the cells were collected and used in the following tests.
The cultured fibroblasts were sown in a 96-well plate to be 5×10^3 cells/0.1 mL/well, and cultured therein at 37° C. in the presence of 5% CO2 for 1 day. Subsequently, the cell growth medium in each well was replaced with each test medium added with the composition 1 or L-ascorbic acid 2-glucoside, or with a test medium not added with them (control medium). […] Subsequently, the cells were cultured at 37° C. in the presence of 5% CO2 for 3 days, then the supernatant of the test medium in each well was collected, and using a human collagen-type 1 ELISA kit, the I-type collagen concentration in the supernatant was measured. […]

Structure (SMILES): O=C1O[C@H]([C@@H](O)CO)C(O)=C1O[C@H]1O[C@H](CO)[C@@H](O)[C@H](O)[C@H]1O [L-ascorbic Acid 2-Glucoside, L-ascorbic acid 2-glucoside]
- Collagen Production Amount (I-type collagen concentration in supernatant): 4.29 µg/mL
